The text below walks through data of US20140255432A1, “SILVESTROL, SILVESTROL ANALOGS AND USES THEREOF” (priority 2011, published 2014).

Series [1] in a line: Pharmacokinetics work in mice. The series is classed as in vivo.
Series [2] has as its system autologous LCL targets. Description: Flow cytometry-based cytotoxicity assay (CFSE/7-AAD), effectors against autologous LCL. The series is classed as cell-based, human. As to the method:
Non-radioactive flow cytometry-based cytotoxicity assays have been described previously (Godoy-Ramirez 2005; Helguera 2011). Co-cultures of PBMC and irradiated LCL were grown in the presence or absence of silvestrol for 14 d and collected. Fresh autologous LCL cells were stained with 200 nM carboxyfluorescein diacetate succinimidyl ester (CFSE) (CellTrace™, Invitrogen) for 15 min at 25° C. prior to being mixed with effectors from the irradiated co-cultures at an effector:target (E:T) ratio of 20:1 for 4 hr at 37° C. After the incubation, cells were stained with 7-aminoactinomycin D (7AAD) (BD Biosciences, San Diego, Calif.) and washed. Cytotoxicity was measured by gating on the CFSE-positive events and measuring the 7AAD-positive cells. (See FIGS. 31 and 32). For antibody-dependent cell-mediated cytotoxicity (ADCC) assays the same technique was used; however, the co-cultured effectors were natural killer (NK) cell-enriched and were incubated in the presence or absence of 5 μg/mL rituximab or herceptin (negative control) (Genentech, Inc., South San Francisco, Calif.) for 4 hr at 37° C.
Immune cell function was then analyzed as part of the indirect anti-tumor activity of silvestrol. Cytotoxicity assays were performed. To investigate the effect of silvestrol on adaptive immunity, LCL cells were stained with the cell-tracking dye CFSE, then incubated at an effector to target ratio of 20:1 with autologous PBMC that had been cultured in the presence of irradiated LCL, with or without silvestrol, for 14 days. After a 4 hr incubation, cells were stained with the viability dye 7-AAD and washed. Cytotoxic activity against LCL targets was measured by gating on the CFSE positive events and measuring the 7-AAD positive cells (FIGS. 31-32). […] Data are shown relative to the vehicle-only control and are the averages of three independent experiments. Bars show −/+ standard deviation.
Given that LCL cells were depleted and effector cell cytotoxicity was maintained in non-irradiated co-cultures, whether silvestrol lowers the apoptotic threshold of the LCL tumor target was examined. PBMC were co-cultured with irradiated LCL in the absence of silvestrol for 14 days. These expanded effectors and fresh LCL each were separately incubated with silvestrol or vehicle control for 18 hr and washed. Cells were then combined, and after 4 hr incubation, cytotoxicity assays were performed as above. […] Data are shown relative to the vehicle-only control and are the averages of three independent experiments. Bars show −/+ standard deviation.
(In flow cytometry, cells or beads pass a laser one at a time.)

In series [3] the test system is EBV-LPD. In words: hu-PBL-SCID model of EBV-LPD. It counts as in vivo, SCID mice. As to the method:
Six week-old female SCID mice (n=28) received anti-asialo antisera prior to engraftment to deplete murine NK cells. Mice were engrafted intraperitoneally with 5×10^7 peripheral blood mononuclear cells (PBMCs) obtained from EBV-positive, healthy donor. Untreated mice in this model develop lethal disseminated (human) lymphoma; median survival varies by PBMC donor for that experiment. Two weeks post-engraftment, treatments were initiated with either vehicle (30% HBPCD) or vehicle+silvestrol (1.5 mg/kg every 48 hrs; n=14 each). 4 and 8 weeks post-engraftment, 2 mice from each group were sacrificed for examination and blood was drawn from all mice to assess human IgG levels (FIG. 23). The remainder of mice (n=10 each) were followed for survival. Survival is defined as absence of IACUC-approved euthanasia criteria (in this model, typically this is weight loss >20%, together with labored breathing and cessation of grooming).
The Hu-PBL-SCID mouse model has been described (Mosier 1992). Human PBMCs were obtained from a healthy EBV seropositive donor. 5×10^7 cells were injected intraperitoneally (IP) into 6 week-old female SCID mice (Taconic) that were NK cell-depleted by pretreatment with anti-asialo (GM1) (Wako Pure Chemical Industries, Richmond, Va.). Engraftment was confirmed by hu-IgG ELISA from serum as described (Baiocchi 1994). Silvestrol treatment began two weeks post-engraftment.
The hu-PBL SCID model has been used to study the effect of compounds on spontaneously derived EBV-driven lymphomas (Fuzzati-Armentero 1998). PBMC from a healthy EBV-positive donor were injected into a group of SCID mice that had been pretreated with anti-asialo (GM1) to deplete murine NK cells. Mice were randomized (n=14/group) and treatment with 1.5 mg/kg silvestrol or vehicle control every 48 hr began two weeks after engraftment. Two weeks after treatment began (four weeks post-engraftment), an ELISA was performed to evaluate human IgG. […] At 4 and 8 weeks post-engraftment, flow cytometry analysis was performed on spleen cells from two mice in each group. […] Spleens were also obtained from mice as the disease progressed and euthanasia criteria were met. […] During the 140-day experiment, the health of the mice was tracked by body weight. Weights of all mice were checked twice weekly.

Where [4] appears, read: 1.5 mg/kg every 48 hr, 140-day experiment.

On to `COC(=O)[C@H]1[C@@H](O)[C@@]2(O)c3c(OC)cc(O[C@@H]4O[C@@H]([C@H](O)CO)CO[C@H]4OC)cc3O[C@@]2(c2ccc(OC)cc2)[C@@H]1c1ccccc1` [silvestrol], for which the “concentration attainable in vivo” value in series [1] came to 10 nM. Also, the “direct killing of autologous EBV+ LCLs by EBV-specific CTLs” value in series [2] (10 nM (FIG. 42)) is on record as “not adversely affected”. Further, the “cytotoxic activity against autologous LCL maintained, compared to effectors expanded without silvestrol” value in series [2] (effectors expanded 14 days with 10 nM, E:T 20:1, 4 hr) was “over 70%”. Also, the “ability of silvestrol-treated effectors to kill targets vs. untreated effectors” value in series [2] (effectors incubated 18 hr with silvestrol, p=0.287) is “no decrease”. The “cytotoxic activity of effector populations against autologous EBV+ tumor cells” value in series [2] (expanded 14 days in 2, 5, 10 nM, 3 donors (FIG. 17)) is reported as “did not affect cytotoxic activity”. Moreover, the “killing of LCL target cells pretreated with silvestrol vs. untreated targets” value in series [2] (targets pretreated 18 hr, p<0.0001) was “more efficiently killed”. The “signs of disease at the end of the study (flow cytometry of spleen cells)” value in series [3] (1.5 mg/kg every 48 hr) is recorded as “no signs of disease”. Further, the “engraftment of human PBMCs (human immunoglobulin production)” value in series [3] (1.5 mg/kg every 48 hr (FIG. 23)) is reported as “did not affect engraftment”. The “EBV-LPD infiltration of the spleen (flow cytometry)” value in series [3] (1.5 mg/kg every 48 hr, 4 and 8 weeks post-engraftment) was “no tumor burden”. Moreover, in series [3] (setting [4]), the “body weight compared to vehicle-treated mice” value is given as “gain weight at a faster pace” and the “ill effects from long-term treatment” value is recorded as “did not show observable ill effects”. The compound also returned a mean spleen weight in series [3] (1.5 mg/kg every 48 hr, after completion of the experiment at day 140) of 72.9 mg. Also, the “production of human IgG by xenografted B-lymphocytes” value in series [3] (1.5 mg/kg every 48 hr, four weeks post-engraftment) is reported as “did not affect”. Also, the “mice alive at day 140 (overall survival)” value in series [3] (1.5 mg/kg every 48 hr, p<0.001 vs. vehicle) was 7/7.
